# Results taken from patent US4254056A, “2-Aminomethyl phenol derivative and process for preparing thereof” (Ono Pharmaceutical Co., Ltd., priority 1977, dated 1981).
# Assays:
# [1] = Diuretic effect on rats: urinary volume during a 5 hour period after oral administration; assay type: in vivo, Wister male rats; conditions: 3 mg/kg oral; for Urine discharge (in words): Wister male rats; for Urinary volume relative to control: starved rats, 5 hour period after administration, control taken as 100%
# Experimental: About 16 hours before oral administration with 3 mg/kg of the compounds, the rats were starved, with only water available. The urinary volume during a 5 hour period after administration was compared with that of the control groups, taking the urinary volume of the latter as 100%.
# [2] = tested on: Carrageenan-Induced Edema in Rat Paws; assay: Anti-inflammatory effect on carrageenan-induced edema in rat paws (oral); assay type: in vivo, Wister male rats; conditions: for % Inhibition of Foot Edema: 1 hour before carrageenan, swelling at third hour, control taken as 100%; for Inhibition of carrageenan-induced edema (in words): oral, Wister male rats
# Experimental: One hour after oral administration with these compounds, the rats were subcutaneously injected with 0.1 m of 1% carrageenan suspension on the plantar surface of the right hind foot. The swelling was measured at the third hour of carrageenan injection. Anti-inflammatory effect of the compounds was determined as percentage inhibition of the swelling, taking the swelling in the control groups as 100%.
SMILES,Urine discharge (in words) [1],Urinary volume relative to control [1] [%],% Inhibition of Foot Edema ([2]; 10 mg/kg oral) [%],% Inhibition of Foot Edema ([2]; 30 mg/kg oral) [%],Inhibition of carrageenan-induced edema (in words) [2]
CC1CCc2c1cc(CN)c(O)c2I.Cl (stereo not shown) [1-Methyl-4-iodo-6-aminomethyl-5-indanol hydrochloride],discharged increased amounts of urine,208,–,–,–
Cl.NCc1cc2c(c(I)c1O)CCC2 [4-Iodo-6-aminomethyl-5-indanol Hydrochloride],discharged increased amounts of urine,138,41.1,55.8,had carrageenan-induced edema in their paws inhibited
"CN(C)Cc1cc2c(c(I)c1O)CCCC2.Cl [1-Iodo-3-(N,N-dimethylaminomethyl)-5,6,7,8-tetrahydro-2-naphthol Hydrochloride]",discharged increased amounts of urine,232,–,–,–
"Br.NCc1c(O)c(I)cc2c1CCCC2 [1-Aminomethyl-3-iodo-5,6,7,8-tetrahydro-2-naphthol Hydrobromide]",discharged increased amounts of urine,142,55.6,68.8,had carrageenan-induced edema in their paws inhibited
"Br.NCc1cc2c(c(I)c1O)CCCC2 [1-Iodo-3-aminomethyl-5,6,7,8-tetrahydro-2-naphthol Hydrobromide]",discharged increased amounts of urine,226,68.8,69.6,had carrageenan-induced edema in their paws inhibited
"CC1(C)CCCc2c1cc(CN)c(O)c2I.Cl [1-Iodo-3-aminomethyl-5,5-dimethyl-5,6,7,8-tetrahydro-2-naphthol Hydrochloride]",–,–,44.1,66.3,had carrageenan-induced edema in their paws inhibited
